Results published in PubChem BioAssay AID1918940 (Molecular Pharmacology Branch, DTP, NCI, 2023).

System: NCI-H211 complex spheroid viability
Experiment: Anticancer human tumor NCI-H211 cell line growth inhibition [LSD1];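 further: luminescent viability read after seven days of drug exposure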;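 on viability, T/C: 100% = DMSO vehicle control viability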
Details: for IC50: curve of first compound; for viability, T/C: stronger effect = lower value
Summary of the method: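 Multicellular complex spheroids of tumor cells with human endothelial cells (HUVEC) and mesenchymal stem cells; the LSD1 inhibitor iadademstat was combined with standard-of-care or investigational agents. Top concentration at or near clinical Cmax, half-log dilutions; final DMSO ≤0.25%.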

[1] = second compound 0.1 µM, first compound 0.0316 µM
[2] = second compound 0.1 µM, first compound 0.1 µM
[3] = second compound 0.1 µM, first compound 0.316 µM
[4] = second compound 0.1 µM, first compound 1 µM
[5] = second compound 0.1 µM, first compound 3.16 µM
[6] = second compound 0.1 µM, first compound 10 µM
[7] = second compound 0.316 µM, first compound 0.0316 µM
[8] = second compound 0.316 µM, first compound 0.1 µM
[9] = second compound 0.316 µM, first compound 0.316 µM
[10] = second compound 0.316 µM, first compound 1 µM
[11] = second compound 0.316 µM, first compound 3.16 µM
[12] = second compound 0.316 µM, first compound 10 µM
[13] = second compound 1 µM, first compound 0.0316 µM
[14] = second compound 1 µM, first compound 0.1 µM
[15] = second compound 1 µM, first compound 0.316 µM
[16] = second compound 1 µM, first compound 1 µM
[17] = second compound 1 µM, first compound 3.16 µM
[18] = second compound 1 µM, first compound 10 µM
[19] = second compound 3.16 µM, first compound 0.0316 µM
[20] = second compound 3.16 µM, first compound 0.1 µM
[21] = second compound 3.16 µM, first compound 0.316 µM
[22] = second compound 3.16 µM, first compound 1 µM
[23] = second compound 3.16 µM, first compound 3.16 µM
[24] = second compound 3.16 µM, first compound 10 µM
[25] = second compound 10 µM, first compound 0.0316 µM
[26] = second compound 10 µM, first compound 0.1 µM
[27] = second compound 10 µM, first compound 0.316 µM
[28] = second compound 10 µM, first compound 1 µM
[29] = second compound 10 µM, first compound 3.16 µM
[30] = second compound 10 µM, first compound 10 µM

Row | SMILES | IC50 (second compound 0.1 µM) | IC50 (second compound 0.316 µM) | IC50 (second compound 1 µM) | IC50 (second compound 3.16 µM) | IC50 (second compound 10 µM) | viability, T/C [1] | viability, T/C [2] | viability, T/C [3] | viability, T/C [4] | viability, T/C [7] | viability, T/C [8] | viability, T/C [9] | viability, T/C [10] | viability, T/C [13] | viability, T/C [14] | viability, T/C [15] | viability, T/C [16] | viability, T/C [19] | viability, T/C [20] | viability, T/C [21] | other results
1 | CC(C)c1c(-c2ccccc2)nc2c(C#N)c[nH]n2c1=O + NC1CC1c1ccc(-c2cccc(O)c2)cc1 | 6.12 µM | 6.66 µM | 2.93 µM | 6.42 µM | 3.8 µM | 86.7% | 66.5% | 70.5% | 66% | 73.7% | 75.5% | 69.9% | 61.9% | 74.3% | 64.2% | 63.4% | 69.8% | 83.6% | 57.1% | 74.8% | viability, T/C [5]: 54.9%; viability, T/C [6]: 45.3%; viability, T/C [11]: 63.1%; viability, T/C [12]: 43.9%; viability, T/C [17]: 48.7%; viability, T/C [18]: 37.5%; viability, T/C [22]: 63.5%; viability, T/C [23]: 59.6%; viability, T/C [24]: 44.3%; viability, T/C [25]: 52.1%; viability, T/C [26]: 62.4%; viability, T/C [27]: 64.5%; viability, T/C [28]: 58.8%; viability, T/C [29]: 47.2%; viability, T/C [30]: 41.7%
2 | CC1COCCN1c1cc(-c2ccnn2C)c2ccnc(-c3ccn[nH]3)c2n1 (stereo not given) + NC1CC1c1ccc(-c2cccc(O)c2)cc1 | 0.00378 µM | 0.00351 µM | < 0.00316 µM | < 0.00316 µM | < 0.00316 µM | 6.31% | 4.68% | 3.56% | 3.19% | 6.09% | 4.56% | 4.43% | 4.27% | 6.6% | 4.61% | 7.13% | 4.1% | 6.53% | 4.92% | 4.52% | viability, T/C (second compound 0.1 µM, first compound 0.00316 µM): 56.3%; viability, T/C (second compound 0.1 µM, first compound 0.01 µM): 16.8%; viability, T/C (second compound 0.316 µM, first compound 0.00316 µM): 53.6%; viability, T/C (second compound 0.316 µM, first compound 0.01 µM): 14%; viability, T/C (second compound 1 µM, first compound 0.00316 µM): 47.7%; viability, T/C (second compound 1 µM, first compound 0.01 µM): 16.8%; viability, T/C (second compound 3.16 µM, first compound 0.00316 µM): 43.6%; viability, T/C (second compound 3.16 µM, first compound 0.01 µM): 14.1%; viability, T/C [22]: 4.59%; viability, T/C (second compound 10 µM, first compound 0.00316 µM): 34.5%; viability, T/C (second compound 10 µM, first compound 0.01 µM): 14.5%; viability, T/C [25]: 7.33%; viability, T/C [26]: 4.8%; viability, T/C [27]: 4.76%; viability, T/C [28]: 6.03%
3 | COc1ccc([C@@H](O)c2cc(-c3ncnc4cc(N5CCOCC5)ccc34)c(F)cc2Cl)nn1 + NC1CC1c1ccc(-c2cccc(O)c2)cc1 | 4.47 µM | 4.05 µM | 3.57 µM | 2.49 µM | < 0.0316 µM | 62% | 63.6% | 75% | 89.8% | 59.7% | 52.7% | 62.2% | 73.5% | 67.3% | 67% | 72.2% | 76.8% | 54.5% | 53.1% | 59% | viability, T/C [5]: 65.8%; viability, T/C [6]: 13.6%; viability, T/C [11]: 59.9%; viability, T/C [12]: 12.2%; viability, T/C [17]: 54.8%; viability, T/C [18]: 9.71%; viability, T/C [22]: 60.4%; viability, T/C [23]: 48.2%; viability, T/C [24]: 8.23%; viability, T/C [25]: 51.2%; viability, T/C [26]: 38.8%; viability, T/C [27]: 51.6%; viability, T/C [28]: 48%; viability, T/C [29]: 36.7%; viability, T/C [30]: 3.23%
